Literature values, collected in patent EP0502666B2, “Ingestible compositions containing water-soluble, high-viscosity grade cellulose ethers” (THE UNIVERSITY OF MICHIGAN, priority 1991, dated 1992).

CN(C)C(=N)N=C(N)N [metformin]
patients with side effects that lead to the withdrawal of the drug (in vivo): ~5%
patients with gastrointestinal side effects, initially (usually transient): 5-20%
